From ChEMBL document CHEMBL1201862, “PubChem BioAssay data set” (2004)
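Tested at 5 concentrations; 48 h exposure; 96-well plates; endpoints linearly interpolated, else capped at highest concentration. The concentration for 50% growth inhibition is given as GI50.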 Activity calls are given as the source filed them. Cut-off read from the data, not from the text of the source: active = GI50 up to about 1.1 µM and inactive = higher.

What was measured:
Test in all cases: growth of human tumour cells (NCI), 48 h
ACHN = test system: ACHN
CAKI-1 = test system: CAKI-1
CCRF-CEM = test system: CCRF-CEM
HOP-62 = test system: HOP-62
KM12 = test system: KM12
MOLT-4 = test system: MOLT-4
OVCAR-3 = test system: OVCAR-3
OVCAR-4 = test system: OVCAR-4
OVCAR-8 = test system: OVCAR-8
SK-MEL-28 = test system: SK-MEL-28
SK-MEL-5 = test system: SK-MEL-5
SN12C = test system: SN12C
SNB-19 = test system: SNB-19
SNB-75 = test system: SNB-75
TK-10 = test system: TK-10
U-251 = test system: U-251
DU-145 = test system: DU-145
MDA-MB-231 = test system: MDA-MB-231
PC-3 = test system: PC-3

Measured: GI50

O=C(CC1(O)C(=O)Nc2c(Cl)ccc(Cl)c21)c1ccc2ccccc2c1 (stereo not drawn)
inactive: ACHN 12.9 µM | CAKI-1 4.46 µM | CCRF-CEM 3.62 µM | HOP-62 29 µM | KM12 4.69 µM | MOLT-4 10.8 µM | OVCAR-3 4.17 µM | OVCAR-4 2.29 µM | OVCAR-8 15.5 µM | SK-MEL-28 14.8 µM | SK-MEL-5 5.65 µM | SN12C 16.4 µM | SNB-19 16.1 µM | SNB-75 14.2 µM | TK-10 16.2 µM | U-251 4.76 µM

CS(=O)(=O)OCCN1CCN(C(=O)c2cccc3c(Nc4ccc(S(=O)(=O)N=C(N)N)cc4)c4ccccc4nc23)CC1
inactive: ACHN > 100 µM | CAKI-1 > 100 µM | CCRF-CEM > 100 µM | HOP-62 > 100 µM | KM12 > 100 µM | MOLT-4 > 100 µM | OVCAR-3 > 100 µM | OVCAR-4 > 100 µM | OVCAR-8 > 100 µM | SK-MEL-28 > 100 µM | SK-MEL-5 > 100 µM | SN12C > 100 µM | SNB-19 > 100 µM | SNB-75 > 100 µM | TK-10 > 100 µM | U-251 > 100 µM

N#CCC(=O)NC1C2CC3CC(C2)CC1C3 (stereo not drawn)
inactive: ACHN 19.1 µM | CAKI-1 18.6 µM | CCRF-CEM 18.7 µM | HOP-62 23.4 µM | KM12 17.7 µM | MOLT-4 34 µM | OVCAR-3 18.1 µM | OVCAR-4 21.2 µM | OVCAR-8 17.5 µM | SK-MEL-28 19.1 µM | SK-MEL-5 14.6 µM | SN12C 16.1 µM | SNB-19 17.3 µM | SNB-75 17.2 µM | TK-10 19.4 µM | U-251 16.2 µM

O=C(Cn1c(-c2ccccc2)cc2ccccc21)N1CCCC1
inactive: ACHN > 100 µM | DU-145 > 100 µM | HOP-62 > 100 µM | MDA-MB-231 > 100 µM | MOLT-4 > 100 µM | OVCAR-3 > 100 µM | OVCAR-4 > 100 µM | OVCAR-8 > 100 µM | PC-3 > 100 µM | SK-MEL-5 63.2 µM | SN12C > 100 µM | SNB-19 > 100 µM | SNB-75 > 100 µM

Nc1c(-c2ccc(-c3c(N)[n+]([O-])c4ccccc4[n+]3[O-])cc2)[n+]([O-])c2ccccc2[n+]1[O-]
inactive: ACHN 16.2 µM | CAKI-1 6.65 µM | CCRF-CEM 38.7 µM | HOP-62 17.8 µM | KM12 11.1 µM | MOLT-4 33.3 µM | OVCAR-3 15.7 µM | OVCAR-4 17.7 µM | OVCAR-8 18.9 µM | SK-MEL-28 5.73 µM | SK-MEL-5 10.1 µM | SN12C 11.7 µM | SNB-19 13.7 µM | SNB-75 8.15 µM | TK-10 17.6 µM | U-251 14.7 µM

COC(=O)C1=C(C(=O)OC)N(C(C)C)[C@H]2C(C(=O)OC)=C(C(=O)OC)N(C(C)C)[C@@H]12
inactive: ACHN > 100 µM | CAKI-1 > 100 µM | CCRF-CEM > 100 µM | HOP-62 > 100 µM | KM12 > 100 µM | MOLT-4 71 µM | OVCAR-3 95.1 µM | OVCAR-4 > 100 µM | OVCAR-8 > 100 µM | SK-MEL-28 > 100 µM | SK-MEL-5 > 100 µM | SN12C > 100 µM | SNB-19 > 100 µM | SNB-75 93.3 µM | TK-10 > 100 µM | U-251 > 100 µM
